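All cell lines were grown in 96-well plates and treated with compound for 48 hours. Here, GI50 denotes the concentration required for 50% inhibition of growth. Definition used: TGI = concentration required for complete inhibition of growth.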
Assays:
Test in all cases: DTP human tumour cell line panel, 48 h
786-0 renal = test system: 786-0 renal
A498 renal = test system: A498 renal
A549 NSCLC = test system: A549 NSCLC
BT-549 breast = test system: BT-549 breast
CAKI-1 renal = test system: CAKI-1 renal
COLO 205 colon = test system: COLO 205 colon
EKVX NSCLC = test system: EKVX NSCLC
HCC-2998 colon = test system: HCC-2998 colon
HCT-116 colon = test system: HCT-116 colon
HCT-15 colon = test system: HCT-15 colon
HL-60(TB) leukemia = test system: HL-60(TB) leukemia
HOP-62 NSCLC = test system: HOP-62 NSCLC
HOP-92 NSCLC = test system: HOP-92 NSCLC
HS 578T breast = test system: HS 578T breast
HT29 colon = test system: HT29 colon
IGROV1 ovarian = test system: IGROV1 ovarian
K-562 leukemia = test system: K-562 leukemia
KM12 colon = test system: KM12 colon
LOX IMVI melanoma = test system: LOX IMVI melanoma
M14 melanoma = test system: M14 melanoma
MALME-3M melanoma = test system: MALME-3M melanoma
MCF7 breast = test system: MCF7 breast
MDA-MB-231 breast = test system: MDA-MB-231 breast
MDA-MB-435 = test system: MDA-MB-435
MOLT-4 leukemia = test system: MOLT-4 leukemia
NCI-H226 lung = test system: NCI-H226 lung
NCI-H23 lung = test system: NCI-H23 lung
NCI/ADR-RES ovarian = test system: NCI/ADR-RES ovarian
OVCAR-3 ovarian = test system: OVCAR-3 ovarian
OVCAR-4 ovarian = test system: OVCAR-4 ovarian
OVCAR-8 ovarian = test system: OVCAR-8 ovarian
RPMI-8226 leukemia = test system: RPMI-8226 leukemia
RXF 393 renal = test system: RXF 393 renal
SF-268 CNS = test system: SF-268 CNS
SF-295 CNS = test system: SF-295 CNS
SF-539 CNS = test system: SF-539 CNS
SK-MEL-2 melanoma = test system: SK-MEL-2 melanoma
SK-MEL-28 melanoma = test system: SK-MEL-28 melanoma
SK-MEL-5 melanoma = test system: SK-MEL-5 melanoma
SK-OV-3 ovarian = test system: SK-OV-3 ovarian
SR leukemia = test system: SR leukemia
SW-620 colon = test system: SW-620 colon
T-47D breast = test system: T-47D breast
UO-31 renal = test system: UO-31 renal
ACHN renal = test system: ACHN renal
CCRF-CEM leukemia = test system: CCRF-CEM leukemia
DU-145 prostate = test system: DU-145 prostate
NCI-H460 lung = test system: NCI-H460 lung
NCI-H522 lung = test system: NCI-H522 lung
OVCAR-5 ovarian = test system: OVCAR-5 ovarian
PC-3 prostate = test system: PC-3 prostate
SN12C renal = test system: SN12C renal
SNB-19 CNS = test system: SNB-19 CNS
SNB-75 CNS = test system: SNB-75 CNS
TK-10 renal = test system: TK-10 renal
U251 CNS = test system: U251 CNS
UACC-257 melanoma = test system: UACC-257 melanoma
UACC-62 melanoma = test system: UACC-62 melanoma

C#C[C@]1(O)CC[C@H]2[C@@H]3CC=C4c5sc(Nc6cc(Cl)ccc6OC)nc5CC[C@]4(C)[C@H]3CC[C@@]21C
GI50 (786-0 renal): 0.381 µM
TGI (786-0 renal): 1.97 µM
GI50 (A498 renal): 0.219 µM
TGI (A498 renal): 1.05 µM
GI50 (A549 NSCLC): 2.86 µM
TGI (A549 NSCLC): > 100 µM
GI50 (BT-549 breast): 0.797 µM
TGI (BT-549 breast): 5.46 µM
GI50 (CAKI-1 renal): 1.52 µM
TGI (CAKI-1 renal): 4.15 µM
GI50 (COLO 205 colon): 2.19 µM
TGI (COLO 205 colon): 4.39 µM
GI50 (EKVX NSCLC): 1.63 µM
TGI (EKVX NSCLC): 6.39 µM
GI50 (HCC-2998 colon): 1.75 µM
TGI (HCC-2998 colon): 3.39 µM
GI50 (HCT-116 colon): 1.13 µM
TGI (HCT-116 colon): 2.56 µM
GI50 (HCT-15 colon): 1.33 µM
TGI (HCT-15 colon): 3.26 µM
GI50 (HL-60(TB) leukemia): 0.84 µM
TGI (HL-60(TB) leukemia): 3.96 µM
GI50 (HOP-62 NSCLC): 2.56 µM
TGI (HOP-62 NSCLC): > 100 µM
GI50 (HOP-92 NSCLC): 2.47 µM
TGI (HOP-92 NSCLC): 6.75 µM
GI50 (HS 578T breast): 0.486 µM
TGI (HS 578T breast): 5.87 µM
GI50 (HT29 colon): 1.79 µM
TGI (HT29 colon): 4.86 µM
GI50 (IGROV1 ovarian): 1.79 µM
TGI (IGROV1 ovarian): 5.64 µM
GI50 (K-562 leukemia): 0.581 µM
TGI (K-562 leukemia): 9.42 µM
GI50 (KM12 colon): 1.97 µM
TGI (KM12 colon): 4.35 µM
GI50 (LOX IMVI melanoma): 1.38 µM
TGI (LOX IMVI melanoma): 2.88 µM
GI50 (M14 melanoma): 1.4 µM
TGI (M14 melanoma): 4.93 µM
GI50 (MALME-3M melanoma): 1.33 µM
TGI (MALME-3M melanoma): 3.7 µM
GI50 (MCF7 breast): 0.808 µM
TGI (MCF7 breast): 2.35 µM
GI50 (MDA-MB-231 breast): 1.96 µM
TGI (MDA-MB-231 breast): 4.88 µM
GI50 (MDA-MB-435): 1.89 µM
TGI (MDA-MB-435): 5.41 µM
GI50 (MOLT-4 leukemia): 0.454 µM
TGI (MOLT-4 leukemia): 4.6 µM
GI50 (NCI-H226 lung): 1.62 µM
TGI (NCI-H226 lung): 3.51 µM
GI50 (NCI-H23 lung): 1.81 µM
TGI (NCI-H23 lung): > 100 µM
GI50 (NCI/ADR-RES ovarian): 2.52 µM
TGI (NCI/ADR-RES ovarian): 48.8 µM
GI50 (OVCAR-3 ovarian): 1.64 µM
TGI (OVCAR-3 ovarian): 3.56 µM
GI50 (OVCAR-4 ovarian): 3.54 µM
TGI (OVCAR-4 ovarian): > 100 µM
GI50 (OVCAR-8 ovarian): 3.55 µM
TGI (OVCAR-8 ovarian): > 100 µM
GI50 (RPMI-8226 leukemia): 0.251 µM
TGI (RPMI-8226 leukemia): 0.684 µM
GI50 (RXF 393 renal): 0.178 µM
TGI (RXF 393 renal): 0.503 µM
GI50 (SF-268 CNS): 2.21 µM
TGI (SF-268 CNS): > 100 µM
GI50 (SF-295 CNS): 0.306 µM
TGI (SF-295 CNS): 1.12 µM
GI50 (SF-539 CNS): 0.359 µM
TGI (SF-539 CNS): 1.46 µM
GI50 (SK-MEL-2 melanoma): 1.3 µM
TGI (SK-MEL-2 melanoma): 4.61 µM
GI50 (SK-MEL-28 melanoma): 0.42 µM
TGI (SK-MEL-28 melanoma): 1.66 µM
GI50 (SK-MEL-5 melanoma): 1.93 µM
TGI (SK-MEL-5 melanoma): 4.05 µM
GI50 (SK-OV-3 ovarian): 4.27 µM
TGI (SK-OV-3 ovarian): > 100 µM
GI50 (SR leukemia): 0.578 µM
TGI (SR leukemia): 4.51 µM
GI50 (SW-620 colon): 1.67 µM
TGI (SW-620 colon): 3.86 µM
GI50 (T-47D breast): 2.41 µM
TGI (T-47D breast): > 100 µM
GI50 (UO-31 renal): 1.45 µM
TGI (UO-31 renal): 3.04 µM

Nc1nc(-c2cccc([N+](=O)[O-])c2)c(N=Nc2ccc(Br)cc2)s1
GI50 (786-0 renal): 13.6 µM
TGI (786-0 renal): 27.5 µM
GI50 (A498 renal): 16.7 µM
TGI (A498 renal): 31.7 µM
GI50 (A549 NSCLC): 17 µM
TGI (A549 NSCLC): 35.1 µM
GI50 (ACHN renal): 14.2 µM
TGI (ACHN renal): 27.3 µM
GI50 (BT-549 breast): 15.7 µM
TGI (BT-549 breast): 40.8 µM
GI50 (CAKI-1 renal): 12 µM
TGI (CAKI-1 renal): 24.3 µM
GI50 (CCRF-CEM leukemia): 13.4 µM
TGI (CCRF-CEM leukemia): > 100 µM
GI50 (COLO 205 colon): 24.6 µM
TGI (COLO 205 colon): 94 µM
GI50 (DU-145 prostate): 8.14 µM
TGI (DU-145 prostate): 25.8 µM
GI50 (EKVX NSCLC): 17.9 µM
TGI (EKVX NSCLC): 64.1 µM
GI50 (HCC-2998 colon): 18.7 µM
TGI (HCC-2998 colon): 38.8 µM
GI50 (HCT-116 colon): 4.63 µM
TGI (HCT-116 colon): 16 µM
GI50 (HCT-15 colon): 5.57 µM
TGI (HCT-15 colon): 33.2 µM
GI50 (HL-60(TB) leukemia): 91.2 µM
TGI (HL-60(TB) leukemia): > 100 µM
GI50 (HOP-62 NSCLC): 15.2 µM
TGI (HOP-62 NSCLC): 29.8 µM
GI50 (HOP-92 NSCLC): 10.1 µM
TGI (HOP-92 NSCLC): 32.1 µM
GI50 (HS 578T breast): 19.3 µM
TGI (HS 578T breast): > 100 µM
GI50 (HT29 colon): 19.4 µM
TGI (HT29 colon): > 100 µM
GI50 (IGROV1 ovarian): 16.2 µM
TGI (IGROV1 ovarian): 47.8 µM
GI50 (K-562 leukemia): 10.3 µM
TGI (K-562 leukemia): > 100 µM
GI50 (KM12 colon): 16.1 µM
TGI (KM12 colon): > 100 µM
GI50 (LOX IMVI melanoma): 4 µM
TGI (LOX IMVI melanoma): 26.6 µM
GI50 (M14 melanoma): 17.3 µM
TGI (M14 melanoma): 38.8 µM
GI50 (MALME-3M melanoma): 16.3 µM
TGI (MALME-3M melanoma): 30.5 µM
GI50 (MCF7 breast): 12.7 µM
TGI (MCF7 breast): > 100 µM
GI50 (MDA-MB-231 breast): 7.74 µM
TGI (MDA-MB-231 breast): 24 µM
GI50 (MDA-MB-435): 20.5 µM
TGI (MDA-MB-435): 57.2 µM
GI50 (MOLT-4 leukemia): 12 µM
TGI (MOLT-4 leukemia): > 100 µM
GI50 (NCI-H460 lung): 12.8 µM
TGI (NCI-H460 lung): 44.6 µM
GI50 (NCI-H522 lung): 10.9 µM
TGI (NCI-H522 lung): 35.8 µM
GI50 (NCI/ADR-RES ovarian): 7.93 µM
TGI (NCI/ADR-RES ovarian): > 100 µM
GI50 (OVCAR-3 ovarian): 18.6 µM
TGI (OVCAR-3 ovarian): 41.3 µM
GI50 (OVCAR-4 ovarian): 11.1 µM
TGI (OVCAR-4 ovarian): 63.3 µM
GI50 (OVCAR-5 ovarian): 20.3 µM
TGI (OVCAR-5 ovarian): 54.4 µM
GI50 (OVCAR-8 ovarian): 10.2 µM
TGI (OVCAR-8 ovarian): 33.6 µM
GI50 (PC-3 prostate): 20.2 µM
TGI (PC-3 prostate): 86 µM
GI50 (RPMI-8226 leukemia): 21 µM
TGI (RPMI-8226 leukemia): > 100 µM
GI50 (RXF 393 renal): 12.6 µM
TGI (RXF 393 renal): 25.4 µM
GI50 (SF-268 CNS): 19.1 µM
TGI (SF-268 CNS): 99.4 µM
GI50 (SF-295 CNS): 23 µM
TGI (SF-295 CNS): 49.8 µM
GI50 (SF-539 CNS): 3 µM
TGI (SF-539 CNS): 10.4 µM
GI50 (SK-MEL-2 melanoma): 18.6 µM
TGI (SK-MEL-2 melanoma): 51.8 µM
GI50 (SK-MEL-28 melanoma): 18.7 µM
TGI (SK-MEL-28 melanoma): 47 µM
GI50 (SK-MEL-5 melanoma): 16.9 µM
TGI (SK-MEL-5 melanoma): 31.5 µM
GI50 (SK-OV-3 ovarian): 16 µM
TGI (SK-OV-3 ovarian): 30.1 µM
GI50 (SN12C renal): 14.1 µM
TGI (SN12C renal): 37.2 µM
GI50 (SNB-19 CNS): 20.3 µM
TGI (SNB-19 CNS): 50.1 µM
GI50 (SNB-75 CNS): 18.4 µM
TGI (SNB-75 CNS): 41.1 µM
GI50 (SR leukemia): 21.6 µM
TGI (SR leukemia): > 100 µM
GI50 (SW-620 colon): 15.4 µM
TGI (SW-620 colon): 78.8 µM
GI50 (T-47D breast): 9.84 µM
TGI (T-47D breast): 46 µM
GI50 (TK-10 renal): 21.6 µM
TGI (TK-10 renal): 36.5 µM
GI50 (U251 CNS): 14.2 µM
TGI (U251 CNS): 33.6 µM
GI50 (UACC-257 melanoma): 22.4 µM
TGI (UACC-257 melanoma): 50.8 µM
GI50 (UACC-62 melanoma): 15.1 µM
TGI (UACC-62 melanoma): 41.4 µM
GI50 (UO-31 renal): 12.7 µM
TGI (UO-31 renal): 25.2 µM
